Experimental data from ChEMBL document CHEMBL1201862, “PubChem BioAssay data set” (2004).
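Grown in 96-well plates, cells were treated for 48 hours with each compound at five concentrations. Insufficient inhibition: endpoint recorded as highest concentration tested. GI50: concentration for 50% inhibition of growth.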 The source made the active and inactive calls. No stated cut-off is given here; in the data, active = GI50 up to about 1.1 µM and inactive = higher.

Key:
Assay in all cases: NCI anticancer screen, dose series, 48 h
HCC 2998 = system: HCC 2998
786-0 = system: 786-0
OVCAR-3 = system: OVCAR-3
CCRF-CEM = system: CCRF-CEM
OVCAR-4 = system: OVCAR-4
SN12C = system: SN12C
NCI-H226 = system: NCI-H226
OVCAR-8 = system: OVCAR-8
NCI-H23 = system: NCI-H23
COLO 205 = system: COLO 205
SK-MEL-5 = system: SK-MEL-5
RPMI-8226 = system: RPMI-8226
U-251 = system: U-251
RXF 393 = system: RXF 393
MOLT-4 = system: MOLT-4
SNB-75 = system: SNB-75
A498 = system: A498
HT-29 = system: HT-29
IGROV-1 = system: IGROV-1
OVCAR-5 = system: OVCAR-5
K562 = system: K562
A549 = system: A549
KM12 = system: KM12
NCI-H460 = system: NCI-H460
DU-145 = system: DU-145
SF-268 = system: SF-268
HL-60 = system: HL-60
CAKI-1 = system: CAKI-1
HOP-62 = system: HOP-62
UO-31 = system: UO-31
HOP-92 = system: HOP-92
SNB-19 = system: SNB-19
NCI/ADR-RES = system: NCI/ADR-RES
MCF7 = system: MCF7
SK-MEL-28 = system: SK-MEL-28
EKVX = system: EKVX
TK-10 = system: TK-10
Malme-3M = system: Malme-3M
HCT-116 = system: HCT-116
ACHN = system: ACHN
SW-620 = system: SW-620
PC-3 = system: PC-3
UACC-257 = system: UACC-257
SF-539 = system: SF-539
MDA-MB-435 = system: MDA-MB-435
SF-295 = system: SF-295
HCT-15 = system: HCT-15
SR = system: SR
LOX IMVI = system: LOX IMVI
MDA-N = system: MDA-N
NCI-H522 = system: NCI-H522
MDA-MB-231 = system: MDA-MB-231
BT-549 = system: BT-549
Hs-578T = system: Hs-578T
T47D = system: T47D
SK-OV-3 = system: SK-OV-3
UACC-62 = system: UACC-62
M14 = system: M14
SK-MEL-2 = system: SK-MEL-2

C=CCn1c(=O)c(-c2ccccc2)c(O)c2ccccc21
GI50 (HCC 2998): > 100 µM (inactive) | GI50 (786-0): > 100 µM (inactive) | GI50 (OVCAR-3): > 100 µM (inactive) | GI50 (CCRF-CEM): > 100 µM (inactive) | GI50 (OVCAR-4): > 100 µM (inactive) | GI50 (SN12C): > 100 µM (inactive) | GI50 (NCI-H226): > 100 µM (inactive) | GI50 (OVCAR-8): > 100 µM (inactive) | GI50 (NCI-H23): > 100 µM (inactive) | GI50 (COLO 205): > 100 µM (inactive) | GI50 (SK-MEL-5): > 100 µM (inactive) | GI50 (RPMI-8226): > 100 µM (inactive) | GI50 (U-251): > 100 µM (inactive) | GI50 (RXF 393): > 100 µM (inactive) | GI50 (MOLT-4): > 100 µM (inactive) | GI50 (SNB-75): 94 µM (inactive) | GI50 (A498): > 100 µM (inactive) | GI50 (HT-29): > 100 µM (inactive) | GI50 (IGROV-1): > 100 µM (inactive) | GI50 (OVCAR-5): > 100 µM (inactive) | GI50 (K562): > 100 µM (inactive) | GI50 (A549): > 100 µM (inactive) | GI50 (KM12): > 100 µM (inactive) | GI50 (NCI-H460): > 100 µM (inactive) | GI50 (DU-145): > 100 µM (inactive) | GI50 (SF-268): > 100 µM (inactive) | GI50 (HL-60): > 100 µM (inactive) | GI50 (CAKI-1): > 100 µM (inactive) | GI50 (HOP-62): > 100 µM (inactive) | GI50 (UO-31): > 100 µM (inactive) | GI50 (HOP-92): > 100 µM (inactive) | GI50 (SNB-19): > 100 µM (inactive) | GI50 (NCI/ADR-RES): > 100 µM (inactive) | GI50 (MCF7): > 100 µM (inactive) | GI50 (SK-MEL-28): > 100 µM (inactive) | GI50 (EKVX): > 100 µM (inactive) | GI50 (TK-10): > 100 µM (inactive) | GI50 (Malme-3M): > 100 µM (inactive) | GI50 (HCT-116): > 100 µM (inactive) | GI50 (ACHN): > 100 µM (inactive) | GI50 (SW-620): > 100 µM (inactive) | GI50 (PC-3): > 100 µM (inactive) | GI50 (UACC-257): > 100 µM (inactive) | GI50 (SF-539): > 100 µM (inactive) | GI50 (MDA-MB-435): > 100 µM (inactive) | GI50 (SF-295): > 100 µM (inactive) | GI50 (HCT-15): > 100 µM | GI50 (SR): > 100 µM (inactive) | GI50 (LOX IMVI): > 100 µM (inactive) | GI50 (MDA-N): > 100 µM (inactive) | GI50 (NCI-H522): > 100 µM (inactive) | GI50 (MDA-MB-231): > 100 µM (inactive) | GI50 (BT-549): > 100 µM (inactive) | GI50 (Hs-578T): > 100 µM (inactive)

O=C(N/N=C/c1ccc(Cl)cc1)c1c(Cl)c(Cl)c(Cl)c(Cl)c1-c1nc2ccccc2[nH]1
GI50 (HCC 2998): 5.5 µM (inactive) | GI50 (T47D): 4.47 µM (inactive) | GI50 (786-0): 28.6 µM (inactive) | GI50 (OVCAR-3): > 100 µM (inactive) | GI50 (CCRF-CEM): 50.4 µM (inactive) | GI50 (SN12C): > 100 µM (inactive) | GI50 (NCI-H226): 0.224 µM (active) | GI50 (NCI-H23): > 100 µM (inactive) | GI50 (COLO 205): > 100 µM (inactive) | GI50 (SK-MEL-5): 49 µM (inactive) | GI50 (SK-OV-3): 0.0454 µM (active) | GI50 (UACC-62): 80.9 µM (inactive) | GI50 (RPMI-8226): 22.2 µM (inactive) | GI50 (RXF 393): 33 µM (inactive) | GI50 (MOLT-4): 40.2 µM (inactive) | GI50 (M14): 86.5 µM (inactive) | GI50 (SNB-75): > 100 µM (inactive) | GI50 (A498): 98.2 µM (inactive) | GI50 (HT-29): 47.3 µM (inactive) | GI50 (IGROV-1): 59.3 µM (inactive) | GI50 (OVCAR-5): > 100 µM (inactive) | GI50 (K562): 47.9 µM (inactive) | GI50 (A549): > 100 µM (inactive) | GI50 (KM12): 8.36 µM (inactive) | GI50 (NCI-H460): 30 µM (inactive) | GI50 (DU-145): > 100 µM (inactive) | GI50 (SF-268): > 100 µM (inactive) | GI50 (HL-60): > 100 µM (inactive) | GI50 (CAKI-1): 46.2 µM (inactive) | GI50 (HOP-62): 0.0452 µM (active) | GI50 (UO-31): 86.9 µM (inactive) | GI50 (HOP-92): 23.6 µM (inactive) | GI50 (SNB-19): > 100 µM (inactive) | GI50 (NCI/ADR-RES): > 100 µM (inactive) | GI50 (MCF7): 16.2 µM (inactive) | GI50 (SK-MEL-28): > 100 µM (inactive) | GI50 (EKVX): 16.9 µM (inactive) | GI50 (SK-MEL-2): 93.1 µM (inactive) | GI50 (Malme-3M): > 100 µM (inactive) | GI50 (HCT-116): 40.3 µM (inactive) | GI50 (ACHN): 64.6 µM (inactive) | GI50 (SW-620): > 100 µM (inactive) | GI50 (PC-3): 92.5 µM (inactive) | GI50 (SF-539): > 100 µM (inactive) | GI50 (MDA-MB-435): 74.3 µM (inactive) | GI50 (SF-295): 0.0405 µM (active) | GI50 (HCT-15): 64.1 µM | GI50 (SR): 59.2 µM (inactive) | GI50 (LOX IMVI): 41.1 µM (inactive) | GI50 (MDA-N): 56.8 µM (inactive) | GI50 (NCI-H522): 55.7 µM (inactive) | GI50 (BT-549): > 100 µM (inactive) | GI50 (Hs-578T): 1.83 µM (inactive)
